Results as given in PMC9604400, “Synthesis, Anticancer and Antitubercular Properties of New Chalcones and Their Nitrogen-Containing Five-Membered Heterocyclic Hybrids Bearing Sulfonamide Moiety” (International Journal of Molecular Sciences, 2022).
Marks after values point to notes of the source that are not given here.

How the values were obtained:
[1] = system: 60 human cancer cell lines; assay: NCI-60 screen (SRB), whole panel; assay type: cell-based; conditions: single dose 10 μM; for inhibition at 10 µM: Homo sapiens, mean over 60 cell lines, over 100% = cell death, read-out: Mean growth inhibition (GI) percentage
M. tuberculosis H37Rv = assay: Checkerboard synergism assay; assay type: cell-based, Mycobacterium tuberculosis; conditions: for MIC: Mycobacterium tuberculosis, H37RV, checkerboard, alone
Protocol: The synergism assays were carried out in 96-well plates with Middlebrook 7H9 medium supplemented with OADC.

[2] = antibiotic in combination with 20a
[3] = antibiotic in combination with 20f

| melting point [°C] | SMILES | inhibition at 10 µM [1] [%] | also measured |
| --- | --- | --- | --- |
| – | COc1cc(OC)c(S(N)(=O)=O)cc1C(C)=O [Compound 8b, 5-Acetyl-2,4-dimethoxybenzenesulfonamide] | – | antiproliferative activity (in words) [1]: low antiproliferative activity |
| 186 to 189 | COc1cc(OC)c(S(=O)(=O)N(CCCl)CCCl)cc1C(=O)/C=C/c1ccc(C)cc1 [Compound 18c, (E)-N,N-bis(2-Chloroethyl)-2,4-dimethoxy-5-(3-(p-tolyl)acryloyl)benzenesulfonamide] | – | – |
| – | NCC[C@H](O)C(=O)N[C@@H]1C[C@H](N)[C@@H](O[C@H]2O[C@H](CN)[C@@H](O)[C@H](O)[C@H]2O)[C@H](O)[C@H]1O[C@H]1O[C@H](CO)[C@@H](O)[C@H](N)[C@H]1O [AMK, amikacin, reference compound] | – | MIC (M. tuberculosis H37Rv): 1.5 µg/mL; FICI Index (M. tuberculosis H37Rv; [2]): 2.00; MIC Combination (M. tuberculosis H37Rv; [2]): 1.5 µg/mL; FICI Index (M. tuberculosis H37Rv; [3]): 2.00; MIC Combination (M. tuberculosis H37Rv; [3]): 1.5 µg/mL |
| – | COc1ccc(C(C)=O)cc1S(=O)(=O)Nc1cccnc1 [Compound 10, 5-Acetyl-2-methoxy-N-(pyridin-3-yl)benzenesulfonamide] | 3.21 | antiproliferative activity (in words) [1]: low antiproliferative activity |
| 146 to 148 | COc1ccc(C2=NN(C(C)=O)C(c3ccc(Cl)cc3)C2)cc1S(=O)(=O)NNC(=O)c1ccncc1 (stereo not shown) | – | – |
| 236 to 238 | COc1ccc(C2=NN(C(N)=S)C(c3ccc(Cl)cc3)C2)cc1S(=O)(=O)Nc1cccnc1 (stereo not shown) | – | – |
| 186 to 187 | COc1cc(OC)c(S(=O)(=O)N(CCCl)CCCl)cc1C(=O)/C=C/c1ccc(Cl)cc1 [Compound 18b, (E)-N,N-bis(2-Chloroethyl)-5-(3-(4-chlorophenyl)acryloyl)-2,4-dimethoxybenzenesulfonamide] | – | – |
| 180 to 182 | COc1cc(OC)c(S(=O)(=O)NNC(=O)c2ccncc2)cc1C1=NN(C(N)=S)C(c2ccc(Cl)cc2)C1 (stereo not shown) | – | – |
| – | COc1ccc(C(C)=O)cc1S(=O)(=O)NNC(=O)c1ccncc1 [Compound 14a, 5-Acetyl-N’-isonicotinoyl-2-methoxybenzenesulfonohydrazide] | 2.09 | antiproliferative activity (in words) [1]: low antiproliferative activity |
| 156 to 158 | COc1ccc(C2=NN(C=O)C(c3ccc(Cl)cc3)C2)cc1S(=O)(=O)NNC(=O)c1ccncc1 (stereo not shown) | – | – |
| 269 to 271 | COc1cc(OC)c(S(N)(=O)=O)cc1C1=NN(C=O)C(c2ccc(Cl)cc2)C1 (stereo not shown) | – | – |
| – | C[C@H]1COc2c(N3CCN(C)CC3)c(F)cc3c(=O)c(C(=O)O)cn1c23 [Levofloxacin, levofloxacin, reference compound] | – | MIC (M. tuberculosis H37Rv): 0.5 µg/mL; FICI Index (M. tuberculosis H37Rv; [2]): 1.25; MIC Combination (M. tuberculosis H37Rv; [2]): 0.5 µg/mL; FICI Index (M. tuberculosis H37Rv; [3]): 1.00; MIC Combination (M. tuberculosis H37Rv; [3]): 0.25 µg/mL |
| 229 to 232 | COc1ccc(C2=NN(C(C)=O)C(c3ccc(Cl)cc3)C2)cc1S(N)(=O)=O (stereo not shown) | – | – |
| 168 to 171 | COc1ccc(/C=C/C(=O)c2cc(S(=O)(=O)N(CCCl)CCCl)c(OC)cc2OC)cc1 [Compound 18d, (E)-N,N-bis(2-Chloroethyl)-2,4-dimethoxy-5-(3-(4-methoxyphenyl)acryloyl)benzenesulfonamide] | – | – |
| – | CO[C@H]1/C=C/O[C@@]2(C)Oc3c(C)c(O)c4c(O)c(c(/C=N/N5CCN(C)CC5)c(O)c4c3C2=O)NC(=O)/C(C)=C\C=C\[C@H](C)[C@H](O)[C@@H](C)[C@@H](O)[C@@H](C)[C@H](OC(C)=O)[C@@H]1C [RIF, rifampicin, reference compound] | – | MIC Combination (M. tuberculosis H37Rv; [2]): 0.048 µg/mL; FICI Index (M. tuberculosis H37Rv; [3]): 0.37 *; MIC Combination (M. tuberculosis H37Rv; [3]): 0.048 µg/mL |
| 250 to 252 | COc1ccc(C(=O)/C=C/c2ccc(C)cc2)cc1S(=O)(=O)NNC(=O)c1ccncc1 | – | – |
| 193 to 196 | COc1cc(OC)c(S(=O)(=O)N(CCCl)CCCl)cc1C(=O)/C=C/c1ccc2c(c1)OCO2 [Compound 18f, (E)-5-(3-(Benzo[d][1,3]dioxol-5-yl)acryloyl)-N,N-bis(2-chloroethyl)-2,4-dimethoxybenzenesulfonamide] | – | – |
| 184 to 186 | COc1cc(OC)c(S(=O)(=O)N(CCCl)CCCl)cc1C(=O)C=Cc1ccccc1 [Compound 18a, N,N-bis(2-chloroethyl)-5-cinnamoyl-2,4-dimethoxybenzenesulfonamide] | – | – |
| 166 to 168 | COc1cc(OC)c(S(=O)(=O)NNC(=O)c2ccncc2)cc1C1=NN(C=O)C(c2ccc(Cl)cc2)C1 (stereo not shown) | – | – |
| – | COc1cc(OC)c(S(=O)(=O)NNC(=O)c2ccncc2)cc1C(C)=O [Compound 14b, 5-Acetyl-N’-isonicotinoyl-2,4-dimethoxybenzenesulfonohydrazide] | – | antiproliferative activity (in words) [1]: low antiproliferative activity |
| – | COc1cc(OC)c(S(=O)(=O)N(CCCl)CCCl)cc1C(C)=O [Compound 12, 5-Acetyl-N,N-bis(2-chloroethyl)-2,4-dimethoxybenzenesulfonamide] | – | antiproliferative activity (in words) [1]: low antiproliferative activity |
| 222 to 224 | COc1cc(OC)c(S(=O)(=O)N(CCCl)CCCl)cc1C1=NN(C=O)C(c2ccc(Cl)cc2)C1 (stereo not shown) [Compound 22d, N,N-bis(2-Chloroethyl)-5-(5-(4-chlorophenyl)-1-formyl-4,5-dihydro-1H-pyrazol-3-yl)-2,4-dimethoxybenzenesulfonamide] | – | – |
| 196 to 198 | COc1cc(OC)c(S(=O)(=O)N(CCCl)CCCl)cc1C1=NN(C(N)=S)C(c2ccc(Cl)cc2)C1 (stereo not shown) [Compound 27e, 3-(5-(N,N-bis(2-Chloroethyl)sulfamoyl)-2,4-dimethoxyphenyl)-5-(4-chlorophenyl)-4,5-dihydro-1H-pyrazole-1-carbothioamide] | – | – |
| 241 to 243 | COc1ccc(C2=NN(C=O)C(c3ccc(Cl)cc3)C2)cc1S(=O)(=O)Nc1cccnc1 (stereo not shown) | – | – |

| SMILES | melting point [°C] | inhibition at 10 µM [1] [%] | also measured |
| --- | --- | --- | --- |
| COc1ccc(C(=O)/C=C/c2cc(OC)c(OC)c(OC)c2)cc1S(=O)(=O)NNC(=O)c1ccncc1 [Compound 19e, (E)-N’-Isonicotinoyl-2-methoxy-5-(3-(3,4,5-trimethoxyphenyl)acryloyl)benzenesulfonohydrazide] | 202 to 204 | 7.7 | – |
| COc1cc(OC)c(S(=O)(=O)NNC(=O)c2ccncc2)cc1C(=O)/C=C/c1ccc(Cl)cc1 [Compound 20b, (E)-5-(3-(4-Chlorophenyl)acryloyl)-N’-isonicotinoyl-2,4-dimethoxybenzenesulfonohydrazide] | 196 to 198 | 20 | – |
| COc1ccc(C(=O)/C=C/c2ccc3c(c2)OCO3)cc1S(=O)(=O)NNC(=O)c1ccncc1 [Compound 19f, (E)-5-(3-(Benzo[d][1,3]dioxol-5-yl)acryloyl)-N’-isonicotinoyl-2-methoxybenzenesulfonohydrazide] | 245 to 248 | 0.48 | – |
| COc1ccc(/C=C/C(=O)c2cc(S(N)(=O)=O)c(OC)cc2OC)cc1 [Compound 17d, (E)-2,4-Dimethoxy-5-(3-(4-methoxyphenyl)acryloyl)benzenesulfonamide] | 215 to 218 | 30 | – |
| COc1ccc(C2=NN(C=O)C(c3ccc(Cl)cc3)C2)cc1S(N)(=O)=O (stereo not shown) [Compound 22a, 5-(5-(4-Chlorophenyl)-1-formyl-4,5-dihydro-1H-pyrazol-3-yl)-2-methoxybenzenesulfonamide] | 230 to 231 | 2.15 | – |
| COc1ccc(C(=O)/C=C/c2ccc3c(c2)OCO3)cc1S(=O)(=O)Nc1cccnc1 [Compound 16f, (E)-5-(3-(Benzo[d][1,3]dioxol-5-yl)acryloyl)-2-methoxy-N-(pyridin-3-yl)benzenesulfonamide] | 220 to 223 | 12.9 | – |
| COc1ccc(/C=C/C(=O)c2ccc(OC)c(S(=O)(=O)Nc3cccnc3)c2)cc1 [Compound 16d, (E)-2-Methoxy-5-(3-(4-methoxyphenyl)acryloyl)-N-(pyridin-3-yl)benzenesulfonamide] | 228 to 230 | 10.2 | – |
| COc1ccc(C2=NN(C(N)=S)C(c3ccc(Cl)cc3)C2)cc1S(N)(=O)=O (stereo not shown) [Compound 27a, 5-(4-Chlorophenyl)-3-(4-methoxy-3-sulfamoylphenyl)-4,5-dihydro-1H-pyrazole-1-carbothioamide] | 206 to 208 | -0.54 | – |
| COc1ccc(C(=O)/C=C/c2cc(OC)c(OC)c(OC)c2)cc1S(=O)(=O)Nc1cccnc1 [Compound 16e, (E)-2-Methoxy-N-(pyridin-3-yl)-5-(3-(3,4,5-trimethoxyphenyl)acryloyl)benzenesulfonamide] | 239 to 241 | 7.7 | – |
| COc1ccc(C(=O)/C=C/c2ccc(C)cc2)cc1S(=O)(=O)Nc1cccnc1 [Compound 16c, (E)-2-Methoxy-N-(pyridin-3-yl)-5-(3-(p-tolyl)acryloyl)benzenesulfonamide] | 231 to 234 | 12.2 | – |
| COc1ccc(C(=O)/C=C/c2ccc(Cl)cc2)cc1S(=O)(=O)Nc1cccnc1 [Compound 16b, (E)-5-(3-(4-Chlorophenyl)acryloyl)-2-methoxy-N-(pyridin-3-yl)benzenesulfonamide] | 256 to 258 | 17 | – |
| COc1ccc(C(=O)C=Cc2ccccc2)cc1S(=O)(=O)Nc1cccnc1 [Compound 16a, 5-Cinnamoyl-2-methoxy-N-(pyridin-3-yl)benzenesulfonamide] | 229 to 230 | 16.5 | – |
| COc1cc(OC)c(S(N)(=O)=O)cc1C(=O)/C=C/c1cc(OC)c(OC)c(OC)c1 [Compound 17e, (E)-2,4-Dimethoxy-5-(3-(3,4,5-trimethoxyphenyl)acryloyl)benzenesulfonamide] | 253 to 256 | 24.7 | – |
| COc1ccc(C(=O)/C=C/c2ccc(Cl)cc2)cc1S(=O)(=O)NNC(=O)c1ccncc1 [Compound 19b, (E)-5-(3-(4-Chlorophenyl)acryloyl)-N’-isonicotinoyl-2-methoxybenzenesulfonohydrazide] | 242 to 244 | 0.96 | – |
